Experiments:
[1] = tested on: recalcified citrated whole blood; test: Pressure-sensor readout of clot formation and clotting time in tortuous microfluidic device perfused with recalcified citrated whole blood; assay type: cell-based, human; settings: for clotting time (2.5× pressure increase from baseline): increasing concentration of heparin (0-1 IU/ml) or bivalirudin (0-75 ng/mL), FIGS. 20, 22
Description: Even though microscopic analysis of real-time thrombus formation in the microfluidic device may be useful in labs, the microfluidic device may also be deployed and utilized at the point-of-care. In the interest of utilizing the microfluidic device at the point-of-care, the microfluidic device was connected to a syringe pump, a disposable pressure sensor, and a display monitor. Given that each of these components are already a part of most extracorporeal circuits, these components may be conveniently integrated in broad critical care settings. Additionally, using these components, clot formation may be automatically tracked in real-time by measuring changes in fluid pressure caused by increasing channel occlusion inside the device, as described above with respect to system 10.
It was found during testing of the microfluidic device that as recalcified citrated whole blood was perfused and formed clots inside the microfluidic device, pressure increases typical of the dynamics of clotting in blood vessel in vivo, or in an in vitro hollow channel, was seen, the pressure increases comprising three stages—a steady reaction time, a growth phase, and saturation. […] Next, a clotting time measurement was developed for these pressure readouts to serve as a quantitative end point in lab and clinical settings.
The experimental microfluidic described above was fabricated from PDMS soft lithography to a size that would fit on a standard (e.g., 75 mm×50 mm) microscope slide. The cured PDMS from the master mold was bonded to a […] PDMS-coated glass slide and punched with inlet and outlet 1.5 mm holes. Next, the device was coated with rat tail type I collagen at 100 μg/ml infused into the microfluidic device which was pre-treated with silane. The microfluidic device was incubated at 37° C. for three to four hours and washed with saline solution prior to blood perfusion. At the inlet side of the microfluidic device, a reservoir was created by force-fitting an open slip-tip syringe and fresh blood was stored therein. At the outlet, tubing was connected to an inline, disposable pressure sensor configured to determine pressure change across the microfluidic device. The other end of the pressure sensor was connected to a syringe pump which pulled the stored blood at a mean arteriole wall shear rate of 1200 1/s. Thrombus formation was observed using time-lapse imaging (10×, NA 0.35) of fluorescently labelled fibrinogen (15 μg/ml, Alexa Fluor 647, Invitrogen) and platelets (10 μl/ml Human CD41-PE (clone: VIPL3), Invitrogen) added directly to the blood and incubated at room temperature for approximately eight minutes for whole blood imaging. Fluorescence microscopy of fibrin and platelets was then performed at an interval of approximately 30 seconds.

whole blood = test: Fibrin area coverage by fluorescence microscopy in collagen-coated tortuous microfluidic device perfused with whole blood; assay type: cell-based, human
Description: A microfluidic device was then fabricated and mounted onto a microscope for visualization. The microfluidic device was also connected the to a syringe pump to introduce flow therethrough in a configuration similar, in at least some respects, to that of system 10 shown in FIG. 1. Blood first entered into a large reservoir (4.7 mm wide) and then flow split into four smaller parallel stenosed tortuous channels (200 μm wide); followed by convergence of the flow into an outlet similar to the inlet. The 4-channel design is partially analogous to a vessel network in vivo in which clots may form or detach locally, but the pressure still increases due to the systemic thrombosis. In addition, the total width and length of the device were designed to fit on a standard glass microscope slide for practical ease. Each device contains multiple single microchannel sections that were optimized to create maximum tortuosity (alternating 30° bends, corresponding to TI=3.4), to expose flowing whole blood to varying shear rates due to both stenosis and tortuosity, thus promoting rapid clot formation and occlusion. To enable more rapid cell activation and adhesion, the surface of the microchannels were further functionalized within the device with collagen type I, which is a commonly applied platelet agonist. The microfluidic device was operated at a flowrate of 70 μl/min, leading to a pre-stenosed mean wall shear rate of 1,200 reciprocal seconds (1/s) corresponding to typical arteriolar flow, and a wall shear gradient of 935 reciprocal second-millimeters (1/(s-m)) in the straight region following the pre-stenosed reservoir.
Referring to FIGS. 13, 14, re-calcified citrated whole blood was perfused through the microfluidic device for a maximum of 10 minutes at the 70 μl/min, less than 1 mL of blood was consumed, and the formation of various sized thrombi was detected throughout its entire length using fluorescence imaging 205, 207 shown in FIGS. 13, 14, respectively. […]

Molecule	blood flow pressure curve over time ([1]; increasing doses of tranexamic acid 0-4 mg/mi in whole blood, FIG. 25)	clotting time ([1]; increasing doses of tranexamic acid 0-4 mg/mi in whole blood, FIG. 26)	fibrin area coverage (whole blood; bivalirudin 0-100 ng mL−1 added to whole blood, FIGS. 17, 18)	fibrin area coverage (whole blood; bivalirudin at 75 ng/ml in whole blood, FIGS. 17, 18)	blood flow pressure increase over time ([1]; bivalirudin 0-75 ng/mL added into blood, FIG. 21)	clotting time (2.5× pressure increase from baseline) [1]	fibrin area coverage (whole blood; UFH 0-1 IU/mL added to whole blood, fluorescently labelled fibrin, FIGS. 15, 16)	blood flow pressure increase over time ([1]; heparin 0-1 IU/ml added into blood, relative to normal controls, FIG. 19)
NC[C@H]1CC[C@H](C(=O)O)CC1 [tranexamic acid]	relative shift in pressure curve to the left	decrease in clotting time	–	–	–	–	–	–
bivalirudin	–	–	reduced fibrin	nearly complete clearance	a similar trend	clotting time decreased as concentration increased	–	–
unfractionated heparin	–	–	–	–	–	clotting time decreased as concentration increased	decrease in fibrin area coverage	the pressure increase shifted relative to normal controls

— patent US20210354135A1, “SYSTEMS AND METHODS FOR EVALUATING AN ABILITY OF A BLOOD SAMPLE TO COAGULATE, CLOT, AND/OR OCCLUDE” (The Texas A&M University System, priority 2020, published 2021)
